Experiments:
Type in all cases: physicochemical
[1] = Near-infrared fluorescence micrographs (40×) of ICG-loaded vs ICG-stained erythrocytes: cell brightness; conditions: FIG. 1C, plasma exposed 20 min to stained erythrocytes
Description: FIGS. 1A-1D are near-infrared fluorescence micrographs at 40× magnification of erythrocytes, comparing the brightness of cells “stained” with ICG (A—stained in 1 mM ICG solution for 30 min. and B—stained in 2 mM ICG solution for 60 min. to cells into which ICG has been loaded through pores in their membranes; C—stained plasma resulting from exposure for 20 min. to the stained erythrocytes from A; D—dialysed in 1 mM ICG solution for 30 min.);
(1) Although many fluorescent dyes, such as ICG dye, do bind to the erythrocyte outer cell membrane, binding is weak and non-covalent, and regardless of the dye concentration and conjugation time, the maximum fluorescence brightness that can be achieved is considerably less than optimum (see FIG. 1). […] (2) Exposure to fluorescence excitation energy for diagnostic purposes must not exceed the safe maximum permissible exposure level for the sensory retina. Since ICG dye is a fairly weak emitter of fluorescence, care must be taken to ensure that the amount of ICG present post-loading is optimal, resulting in maximum fluorescence intensity possible at a given safe excitation energy level. […] Moreover, since ICG is subject to concentration fluorescence quenching—even when inside erythrocytes—the amount of loaded dye must be controlled: too much or too little will not produce the maximum fluorescence. […]

[2] = Infrared fluorescence image of thick and thin layers of ICG with and without Ag colloid; conditions: thick (1 cm) layers, 0.250 mg/mL ICG in HAS with or without 4.684 mg/mL Ag colloid, 805 nm
Description: FIG. 7 is an infrared fluorescence image comparing the fluorescence enhancement effect of silver colloid in 0.05 mg/mL ICG solutions; samples in the left-hand side contain no colloid, while those in the right-hand side contain colloid; samples at the top are in 1-cm thick tubes, while those at the bottom are 100 microns thick;
FIG. 8 is an infrared fluorescence image of the samples of FIG. 7 showing reflection of the 805-nm wavelength light used to stimulate fluorescence; no barrier filter was placed in front of the CCD camera in this case;
The disparity between fluorescence enhancement reported in the experiments made using glass surfaces on which the dye/colloid conjugates were bound with amino groups (30-fold) and those observed in the in vivo angiograms (2- to 3-fold) apparently was due to the fact that the colloid fluorescence-enhancement effect is manifest in very thin layers of the dye/suspension and suppressed in thick ones. In this figure, the thick samples are at the top, and the thin ones at the bottom; 0.250 mg/mL ICG in HAS is on the left, and 0.250 mg/mL ICG in HAS with 4.684 mg/mL Ag colloid on the right. The array of samples was uniformly illuminated with 805-nm wavelength light, and the ICG fluorescence image was captured. […]

[3] = Optimum ICG concentration for fluorescence (concentration quenching)
Text: (1) Although many fluorescent dyes, such as ICG dye, do bind to the erythrocyte outer cell membrane, binding is weak and non-covalent, and regardless of the dye concentration and conjugation time, the maximum fluorescence brightness that can be achieved is considerably less than optimum (see FIG. 1). […] (2) Exposure to fluorescence excitation energy for diagnostic purposes must not exceed the safe maximum permissible exposure level for the sensory retina. Since ICG dye is a fairly weak emitter of fluorescence, care must be taken to ensure that the amount of ICG present post-loading is optimal, resulting in maximum fluorescence intensity possible at a given safe excitation energy level. […] Moreover, since ICG is subject to concentration fluorescence quenching—even when inside erythrocytes—the amount of loaded dye must be controlled: too much or too little will not produce the maximum fluorescence. […] Achieving optimal dye concentration is accomplished by controlling the amount of dye in the solution during dialysis once the pores in the cell membranes open; experimentation has determined the optimum amount to be approximately 1.0 μmol/mL dialysed cell-solution (see FIG. 2). […] This also has the advantage of preventing plasma dye-staining and the associated reduction of contrast between cell fluorescence and background brightness once the cells are re-injected. […]

CC1(C)C(/C=C/C=C/C=C/C=C2\N(CCCCS(=O)(=O)O)c3ccc4ccccc4c3C2(C)C)=[N+](CCCCS(=O)(=O)[O-])c2ccc3ccccc3c21 [ICG, indocyanine green]
affinity of ICG dye molecules: plasma proteins vs erythrocyte outer membrane [1]: greater for plasma proteins than for the erythrocyte outer membrane
fluorescence brightness, thick samples [2]: significantly brighter
optimum concentration of dye molecules in the loaded cells; above that level fluorescence quenching occurs ([3]; ICG inserted into S-IEs): about 0.03 mg/mL
optimum amount of dye in the solution during dialysis ([3]; for maximum fluorescence of loaded erythrocytes): approximately 1.0 μmol/mL dialysed cell-solution
